Measured values reported in article PMC4974627 (Biochemistry, 2016).

Assays:
[1] = target: T1, AtGSNOR (Arabidopsis GSNOR) (Arabidopsis thaliana, UniProt Q96533); experiment: residual GSNO reductase activity after CysNO incubation; assay type: biochemical; conditions: covalent (S-nitrosation of Cys10, Cys271, Cys370), reversible by DTT; one hour
[2] = target: AtGSNOR (Arabidopsis GSNOR) (Arabidopsis thaliana, UniProt Q96533, C271A); experiment: intact protein mass spectrometry; assay type: binding; conditions: covalent (S-nitrosation)
[3] = target: AtGSNOR (Arabidopsis GSNOR) (Arabidopsis thaliana, UniProt Q96533, C370A); experiment: intact protein mass spectrometry; assay type: binding; conditions: covalent (S-nitrosation)
[4] = target: ScSFA1 (yeast GSNOR, Sensitive to Formaldehyde 1) (Saccharomyces cerevisiae, UniProt P32771, C12A); experiment: residual activity after CysNO versus CysSH treatment; assay type: biochemical; conditions: covalent (S-nitrosation); 2 mM CysNO
[5] = target: T1, AtGSNOR (Arabidopsis GSNOR); experiment: time-dependent loss of activity on GSNO incubation; assay type: biochemical; conditions: covalent (presumed S-nitrosation); 1 mM GSNO, 20 µM protein

T1 sequence (Q96533 2-379): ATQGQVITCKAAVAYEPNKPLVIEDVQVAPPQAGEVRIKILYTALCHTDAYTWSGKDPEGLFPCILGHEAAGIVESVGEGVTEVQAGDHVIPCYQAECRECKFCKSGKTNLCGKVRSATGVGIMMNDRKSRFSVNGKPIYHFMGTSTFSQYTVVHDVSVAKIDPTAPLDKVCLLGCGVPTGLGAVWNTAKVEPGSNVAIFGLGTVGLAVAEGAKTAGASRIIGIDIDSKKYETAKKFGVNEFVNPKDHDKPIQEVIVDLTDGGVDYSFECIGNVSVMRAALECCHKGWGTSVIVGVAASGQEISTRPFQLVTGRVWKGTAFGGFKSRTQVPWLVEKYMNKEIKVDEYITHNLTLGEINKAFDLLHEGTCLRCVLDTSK
AtGSNOR (Arabidopsis GSNOR) (Arabidopsis thaliana, UniProt Q96533, C271A), sequence (Q96533 2-379 C271A): as the sequence (Q96533 2-379) above, with C270A counted along it
AtGSNOR (Arabidopsis GSNOR) (Arabidopsis thaliana, UniProt Q96533, C370A), sequence (Q96533 2-379 C370A): as the sequence (Q96533 2-379) above, with C369A counted along it
ScSFA1 (yeast GSNOR, Sensitive to Formaldehyde 1), sequence (P32771 whole entry C12A): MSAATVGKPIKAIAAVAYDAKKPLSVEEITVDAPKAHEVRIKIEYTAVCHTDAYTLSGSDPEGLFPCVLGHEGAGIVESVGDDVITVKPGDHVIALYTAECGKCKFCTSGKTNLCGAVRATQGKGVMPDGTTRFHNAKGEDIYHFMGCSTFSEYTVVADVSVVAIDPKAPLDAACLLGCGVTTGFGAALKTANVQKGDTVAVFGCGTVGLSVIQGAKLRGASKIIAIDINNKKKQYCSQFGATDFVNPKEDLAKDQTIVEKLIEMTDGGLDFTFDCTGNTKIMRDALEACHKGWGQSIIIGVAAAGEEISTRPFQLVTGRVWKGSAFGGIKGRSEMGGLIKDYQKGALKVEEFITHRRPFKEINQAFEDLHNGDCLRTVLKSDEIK

Row | SMILES | % decrease in activity at 125 μM [1] | intact protein mass spectrometry (+29 Da adducts) [2] | intact protein mass spectrometry (+29 Da adducts) [3] | residual activity after CysNO versus CysSH treatment [4] | time-dependent loss of activity on GSNO incubation [5]
1 | N[C@@H](CSN=O)C(=O)O [CysNO] | ~ 40% | only two adducts were observed for single cysteine mutants (Fig. 2F, H, J) | only two adducts were observed for single cysteine mutants (Fig. 2F, H, J) | ScSFA1^C12A and HsGSNOR^C8A were as sensitive to nitrosation as their corresponding wild-types | –
2 | N[C@@H](CCC(=O)N[C@@H](CSN=O)C(=O)NCC(=O)O)C(=O)O [GSNO] | – | – | – | – | Incubation with GSNO caused a time-dependent decrease in the specific activity of unmodified AtGSNOR
